Data on eight molecules can be found in US8722665B2, “Cinnamido-pyrrolo[2,1-C][1,4]benzodiazepines as potential anticancer agents and process for the preparation thereof” (Council of Scientific & Industrial Research, priority 2008, dated 2014).

The test system of the experiment is duplex-form calf thymus DNA (CT-DNA). Description: Thermal denaturation studies with calf thymus DNA. As to conditions: [PBD]:[DNA] molar ratio 1:5, CT-DNA 100 μM, ligand 20 μM, pH 7.00; for (ΔTm ° C.) after incubation at 37° C. for 0 h: 0 h incubation at 37° C.; for (ΔTm ° C.) after incubation at 37° C. for 18 h: 18 h incubation at 37° C. The format is binding. Here is the method: Compounds have been subjected to thermal denaturation studies with duplex-form calf thymus DNA (CT-DNA) using an modification of a reported procedure (Newman, M. S. Carcinog-compr. Surv. 1976, 1, 203; (b) Hecht, S. S.; Loy, M.; Hoffman, Carcinog-compr. Surv. 1976, 1, 325). Working solutions in aqueous buffer (10 mM NaH2PO4/Na2HPO4, 1 mM Na2EDTA, pH 7.00+0.01) containing CT-DNA (100 μm in phosphate) and the PBD (20 μm) have been prepared by addition of concentrated PBD solutions in DMSO to obtain a fixed [PBD]/[DNA] molar ratio of 1:5. The DNA-PBD solutions have been incubated at 37° C. for 0 and 18 h prior to analysis. Samples have been monitored at 260 nm using a Beckman DU-800 spectrophotometer fitted with high performance temperature controller, and heated at 1° C. min^−1 in the 40-110° C. range. DNA helix→coil transition temperatures (Tm) have been obtained from the maxima in the d(A260)/dT derivative plots. Drug-induced alterations in DNA melting behavior are given by: ΔTm=Tm(DNA+PBD)−Tm(DNA alone), where the Tm value for the PBD-free CT-DNA is 69.1±0.01.
The DNA binding activity for these Cinnamido-pyrrolo[2,1-c][1,4]benzodiazepines have been examined by thermal denaturation studies using calf thymus (CT) DNA. […] The data for the compounds 8b&d, 11b&d, 14b&d and 17b&d is included in Table 1 for comparison.

On to `COc1cc(/C=C/C(=O)N2CCN(C)CC2)ccc1OCCCOc1cc2c(cc1OC)C(=O)N1CCC[C@H]1C=N2` [11b, 7-methoxy-8-(3-2-methoxy-4-[(E)-3-(4-methylpiperazino)-3-oxo-1-propenyl-phenoxy]propoxy)-(11aS)-2,3,5,11^a-tetrahydro-5H-pyrrolo[2,1-c][1,4]benzodiazepine-5-one], for which the “(ΔTm ° C.) after incubation at 37° C. for 0 h” value amounted to 4.0 °C and the “(ΔTm ° C.) after incubation at 37° C. for 18 h” value was found to be 5.0 °C.
Turning to “1,1′-{[(E-3-bis propoxy-3-methoxy phenyl)-1-4-piperzino]-2-propene-1-one}dioxy}bis(11aS)-7-methoxy-1,2,3,11a-tetrahydro-5H-pyrrolo[2,1-c][1,4]benzo diazepine-5-one [17b]”, the “(ΔTm ° C.) after incubation at 37° C. for 0 h” value came to 4.0 °C and the “(ΔTm ° C.) after incubation at 37° C. for 18 h” value came out at 5.1 °C.
Regarding `COc1cc(/C=C/C(=O)N2CCN(C)CC2)ccc1OCCCCCOc1cc2c(cc1OC)C(=O)N1CCC[C@H]1C=N2` [11d, 7-methoxy-8-(5-2-methoxy-4-[(E)-3-(4-methylpiperazino)-3-oxo-1-propenyl-phenoxy]pentyloxy)-(11aS)-2,3,5,11^a-tetrahydro-5H-pyrrolo[2,1-c][1,4]benzodiazepine-5-one], the “(ΔTm ° C.) after incubation at 37° C. for 0 h” value is 7.9 °C and the “(ΔTm ° C.) after incubation at 37° C. for 18 h” value came to 8.8 °C.
Consider “1,1′-{[(E-3-bis pentyloxy-3-methoxy phenyl)-1-4-piperzino]-2-propene-1-one]dioxy}bis(11aS)-7-methoxy-1,2,3,11a-tetrahydro-5H-pyrrolo[2,1-c][1,4]benzo diazepine-5-one [17d]”, for which the “(ΔTm ° C.) after incubation at 37° C. for 0 h” value was found to be 8.1 °C and the “(ΔTm ° C.) after incubation at 37° C. for 18 h” value was 9.2 °C.
Taken in the same sequence, the figures for `COc1cc(/C=C/C(=O)N2CCN(C(=O)c3cc(OC)c(OC)c(OC)c3)CC2)ccc1OCCCCCOc1cc2c(cc1OC)C(=O)N1CCC[C@H]1C=N2` [8d, 7-methoxy-8-{5-(2-methoxy-4-(E)-3-oxo-3-[4-(3,4,5-trimethoxybenzoyl)piperazino]-1-propenylphenoxy)pentyloxy}-(11aS)-2,3,5,11^a-tetrahydro-5H-pyrrolo[2,1-c][1,4]benzo-diazepine-5-one] were 1.5 °C and 2.5 °C.
Taken in the same sequence, the figures for `COc1cc2c(cc1O)N=CC1CCCN1C2=O` (stereo not shown) [DC-81, reference compound] were 0.3 °C and 0.7 °C.
In the case of `COc1cc(/C=C/C(=O)N2CCOCC2)ccc1OCCCOc1cc2c(cc1OC)C(=O)N1CCC[C@H]1C=N2` [14b, 7-methoxy-8-(3-2-methoxy-4-[(E)-3-morpholino-3-oxo-1-propenylphenoxy]propoxy)-(11aS)-2,3,5,11^a-tetrahydro-5H-pyrrolo[2,1-c][1,4]benzodiazepine-5-one], the “(ΔTm ° C.) after incubation at 37° C. for 0 h” value came to 3.0 °C and the “(ΔTm ° C.) after incubation at 37° C. for 18 h” value was found to be 4.2 °C.
Turning to `COc1cc(/C=C/C(=O)N2CCOCC2)ccc1OCCCCCOc1cc2c(cc1OC)C(=O)N1CCC[C@H]1C=N2` [14d, 7-methoxy-8-(5-2-methoxy-4-[(E)-3-morpholino-3-oxo-1-propenylphenoxy]pentyloxy)-(11aS)-2,3,5,11^a-tetrahydro-5H-pyrrolo[2,1-c][1,4]benzodiazepine-5-one], the “(ΔTm ° C.) after incubation at 37° C. for 0 h” value came out at 7.1 °C and the “(ΔTm ° C.) after incubation at 37° C. for 18 h” value stood at 8.2 °C.
